Reference: ChEMBL document CHEMBL1142334, “Discovery of a novel class of selective human CB1 inverse agonists” (Bioorg Med Chem Lett, 2008)

Assays:
Cannabinoid receptor 1 [1] = target: T1, Cannabinoid receptor 1 (Homo sapiens, UniProt P21554); assay: Displacement of radioligand from human CB1 receptor expressed in HEK293 cells at 10 uM; type: cell-based
Cannabinoid receptor 1 [2] = target: T1, Cannabinoid receptor 1; assay: Displacement of radioligand from human CB1 receptor expressed in HEK293 cells; type: cell-based
Cannabinoid receptor 2 = Cannabinoid receptor 2 (Homo sapiens, UniProt P34972); assay: Displacement of radioligand from human CB2 receptor expressed in HEK293 cells; type: cell-based
Homo sapiens = organism: Homo sapiens; assay: Selectivity ratio, Ki for human CB2 receptor to Ki for human CB1 receptor
Cannabinoid receptor 1 [3] = target: T1, Cannabinoid receptor 1; assay: Inverse agonist activity at human CB1 receptor expressed in HEK293 EBNA cells by [35S]GTPgammaS incorporation assay; type: functional, cell-based

T1 sequence (P21554 whole entry): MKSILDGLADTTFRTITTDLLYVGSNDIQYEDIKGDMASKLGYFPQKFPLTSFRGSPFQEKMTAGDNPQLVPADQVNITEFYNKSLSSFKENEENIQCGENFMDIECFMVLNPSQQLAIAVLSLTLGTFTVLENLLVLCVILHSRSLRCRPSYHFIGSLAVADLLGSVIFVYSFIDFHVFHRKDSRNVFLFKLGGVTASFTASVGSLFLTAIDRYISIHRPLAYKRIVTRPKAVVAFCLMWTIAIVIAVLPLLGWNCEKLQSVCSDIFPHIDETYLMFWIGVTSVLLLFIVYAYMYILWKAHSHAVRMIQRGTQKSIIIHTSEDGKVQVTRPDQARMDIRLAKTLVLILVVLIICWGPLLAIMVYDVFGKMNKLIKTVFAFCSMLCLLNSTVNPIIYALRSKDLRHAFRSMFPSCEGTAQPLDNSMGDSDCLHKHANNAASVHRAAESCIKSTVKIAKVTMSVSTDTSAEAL
Chain of Cannabinoid receptor 2 (P34972 whole entry): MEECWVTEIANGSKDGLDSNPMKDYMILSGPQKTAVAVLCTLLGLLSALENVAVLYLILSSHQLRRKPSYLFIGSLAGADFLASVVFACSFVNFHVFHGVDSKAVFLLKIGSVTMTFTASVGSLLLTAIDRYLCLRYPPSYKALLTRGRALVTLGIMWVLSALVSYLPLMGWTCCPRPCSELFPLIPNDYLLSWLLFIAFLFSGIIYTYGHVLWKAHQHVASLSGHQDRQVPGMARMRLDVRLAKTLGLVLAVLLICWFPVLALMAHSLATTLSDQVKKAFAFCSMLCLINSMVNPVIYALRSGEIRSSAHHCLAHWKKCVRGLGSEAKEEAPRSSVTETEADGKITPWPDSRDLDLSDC

Structure (SMILES)	inhibition (Cannabinoid receptor 1 [1]) [%]	Ki (Cannabinoid receptor 1 [2]) [µM]	Ki (Cannabinoid receptor 2) [µM]	Ratio Ki (Homo sapiens)	EC50 (Cannabinoid receptor 1 [3]) [µM]
Cc1c(C(=O)NCc2ccccn2)oc2ccc(S(=O)(=O)N3CC(C)CC(C)C3)cc12 (stereo not drawn)	10	–	–	–	–
CCN(CC)S(=O)(=O)c1ccc2oc(C(=O)N(C)Cc3ccccc3)c(C)c2c1	11	–	–	–	–
Cc1c(C(=O)NC2CCCCC2)oc2ccc(S(=O)(=O)N3CC(C)CC(C)C3)cc12 (stereo not drawn)	95	0.108	17.4	161	–
Cc1c(C(=O)N(C)Cc2ccccc2)oc2ccc(S(=O)(=O)N3CC(C)CC(C)C3)cc12 (stereo not drawn)	93	0.059	6.6	112	–
Cc1cccc(NC(=O)c2oc3ccc(S(=O)(=O)N4CC(C)CC(C)C4)cc3c2C)c1C (stereo not drawn)	84	–	–	–	–
Cc1c(C(=O)NCc2cccnc2)oc2ccc(S(=O)(=O)N3CC(C)CC(C)C3)cc12 (stereo not drawn)	46	–	–	–	–
COc1ccc(Cl)cc1NC(=O)c1oc2ccc(S(=O)(=O)N3CC(C)CC(C)C3)cc2c1C (stereo not drawn)	12	–	–	–	–
Cc1c(C(=O)NC2CCCC2)oc2ccc(S(=O)(=O)N3CC(C)CC(C)C3)cc12 (stereo not drawn)	95	0.09	7.4	82	–
Cc1c(C(=O)NCc2ccc(F)cc2)oc2ccc(S(=O)(=O)N3CC(C)CC(C)C3)cc12 (stereo not drawn)	95	0.062	4	65	–
Cc1c(C(=O)N2CCN(C)CC2)oc2ccc(S(=O)(=O)N3CC(C)CC(C)C3)cc12 (stereo not drawn)	27	–	–	–	–
Cc1c(C(=O)NC2CC2)oc2ccc(S(=O)(=O)N3CC(C)CC(C)C3)cc12 (stereo not drawn)	83	–	–	–	–
Cc1c(C(=O)N(C)Cc2ccccc2)oc2ccc(S(=O)(=O)N3CCCC3)cc12	20	–	–	–	–
Cc1c(C(=O)NC2CCCc3ccccc32)oc2ccc(S(=O)(=O)N3CC(C)CC(C)C3)cc12 (stereo not drawn)	96	0.005	22.8	4560	0.0724
Cc1ccc(CNC(=O)c2oc3ccc(S(=O)(=O)N4CC(C)CC(C)C4)cc3c2C)cc1 (stereo not drawn)	93	0.079	19.1	242	–
CCN(CC)CCCNC(=O)c1oc2ccc(S(=O)(=O)N3CC(C)CC(C)C3)cc2c1C (stereo not drawn)	< 1	–	–	–	–
Cc1c(C(=O)Nc2cccc(Cl)c2)oc2ccc(S(=O)(=O)N3CC(C)CC(C)C3)cc12 (stereo not drawn)	70	–	–	–	–
CCCCNC(=O)c1oc2ccc(S(=O)(=O)N3CC(C)CC(C)C3)cc2c1C (stereo not drawn)	92	0.094	9.4	100	–
Cc1c(C(=O)N2CCCCCC2)oc2ccc(S(=O)(=O)N3CC(C)CC(C)C3)cc12 (stereo not drawn)	90	0.193	4.9	25	–
CCN(CC)C(=O)c1oc2ccc(S(=O)(=O)N3CC(C)CC(C)C3)cc2c1C (stereo not drawn)	89	–	–	–	–

The next lines start with the values.

inhibition (Cannabinoid receptor 1 [1]) [%]	Ki (Cannabinoid receptor 1 [2]) [µM]	Ki (Cannabinoid receptor 2) [µM]	Ratio Ki (Homo sapiens)	EC50 (Cannabinoid receptor 1 [3]) [µM]	Structure (SMILES)
96	0.097	9.9	102	–	CCOc1ccccc1CNC(=O)c1oc2ccc(S(=O)(=O)N3CC(C)CC(C)C3)cc2c1C (stereo not drawn)
97	0.058	22.8	393	–	COc1ccccc1CNC(=O)c1oc2ccc(S(=O)(=O)N3CC(C)CC(C)C3)cc2c1C (stereo not drawn)
98	0.092	3.1	34	0.435	CCN(Cc1ccccc1)C(=O)c1oc2ccc(S(=O)(=O)N3CC(C)CC(C)C3)cc2c1C (stereo not drawn)
95	0.058	4.8	83	–	Cc1c(C(=O)NCc2ccccc2Cl)oc2ccc(S(=O)(=O)N3CC(C)CC(C)C3)cc12 (stereo not drawn)
44	–	–	–	–	Cc1c(C(=O)Nc2ccccc2Cl)oc2ccc(S(=O)(=O)N3CC(C)CC(C)C3)cc12 (stereo not drawn)
92	0.172	–	–	–	Cc1c(C(=O)N(C)CCc2ccccc2)oc2ccc(S(=O)(=O)N3CC(C)CC(C)C3)cc12 (stereo not drawn)
92	0.077	6.6	86	–	Cc1c(C(=O)NCc2ccccc2)oc2ccc(S(=O)(=O)N3CC(C)CC(C)C3)cc12 (stereo not drawn)
92	0.198	6	30	–	Cc1c(C(=O)NCCc2ccccc2)oc2ccc(S(=O)(=O)N3CC(C)CC(C)C3)cc12 (stereo not drawn)
50	–	–	–	–	Cc1c(C(=O)N(C)CCC#N)oc2ccc(S(=O)(=O)N3CC(C)CC(C)C3)cc12 (stereo not drawn)
